Experiments:
EW-11 (Ewing's Sarcoma) [1] = experiment: Bliss excess, mean over the matrix (fraction); higher = more synergy
Outline: (§1)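 Bliss excess equals the observed combination effect minus the expected value EA + EB − EA·EB, where EA and EB are the effects of each agent alone. Combination Emax is the second-highest inhibition within the matrix. Inhibition was scaled from CellTiter-Glo 2.0 luminescence, with 0 set by vehicle wells and 1 by blank wells, after 72 hours of two-drug dosing of cells plated in 1536-well plates.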

[2] = test system: ESS-1 (Other Solid Carcinomas); experiment: as above
Outline: as §1

[3] = test system: TGBC1TKB (Biliary Tract Carcinoma); experiment: as above
Outline: as §1

[4] = test system: HH (T-Cell Non-Hodgkin's Lymphoma); experiment: as above
Outline: as §1

[5] = test system: WSU-NHL (B-Cell Non-Hodgkin's Lymphoma); experiment: as above
Outline: as §1

[6] = test system: OVCAR-5 (Ovarian Carcinoma); experiment: as above
Outline: as §1

[7] = test system: HuCCT1 (Biliary Tract Carcinoma); experiment: as above
Outline: as §1

[8] = test system: LNZTA3WT4 (Low Grade Glioma); experiment: as above
Outline: as §1

[9] = test system: NCI-H524 (Small Cell Lung Carcinoma); experiment: as above
Outline: as §1

A673 (Ewing's Sarcoma) [10] = experiment: as above
Outline: as §1

[11] = test system: YAPC (Pancreatic Carcinoma); experiment: as above
Outline: as §1

MPP-89 (Mesothelioma) [12] = experiment: as above
Outline: as §1

[13] = test system: SNU-16 (Gastric Carcinoma); experiment: as above
Outline: as §1

KS-1 (Glioblastoma) [14] = experiment: as above
Outline: as §1

[15] = test system: LS-123 (Colorectal Carcinoma); experiment: as above
Outline: as §1

GAMG (Glioblastoma) [16] = experiment: as above
Outline: as §1

[17] = test system: SW1710 (Bladder Carcinoma); experiment: as above
Outline: as §1

LOXIMVI (Melanoma) [18] = experiment: as above
Outline: as §1

CAL-72 (Osteosarcoma) [19] = experiment: as above
Outline: as §1

[20] = test system: BE-13 (T-Lymphoblastic Leukemia); experiment: as above
Outline: as §1

[21] = test system: SAS (Oral Cavity Carcinoma); experiment: as above
Outline: as §1

[22] = test system: SNU-449 (Hepatocellular Carcinoma); experiment: as above
Outline: as §1

[23] = test system: KYAE-1 (Esophageal Adenocarcinoma); experiment: as above
Outline: as §1

EW-11 (Ewing's Sarcoma) [24] = experiment: combination Emax (second highest fraction inhibited in the dose matrix, 72 h); higher = more inhibition; extreme values may be limits of the assay
Outline: as §1

[25] = test system: ESS-1 (Other Solid Carcinomas); experiment: as above
Outline: as §1

[26] = test system: TGBC1TKB (Biliary Tract Carcinoma); experiment: as above
Outline: as §1

[27] = test system: HH (T-Cell Non-Hodgkin's Lymphoma); experiment: as above
Outline: as §1

[28] = test system: WSU-NHL (B-Cell Non-Hodgkin's Lymphoma); experiment: as above
Outline: as §1

[29] = test system: OVCAR-5 (Ovarian Carcinoma); experiment: as above
Outline: as §1

[30] = test system: HuCCT1 (Biliary Tract Carcinoma); experiment: as above
Outline: as §1

[31] = test system: LNZTA3WT4 (Low Grade Glioma); experiment: as above
Outline: as §1

[32] = test system: NCI-H524 (Small Cell Lung Carcinoma); experiment: as above
Outline: as §1

A673 (Ewing's Sarcoma) [33] = experiment: as above
Outline: as §1

[34] = test system: YAPC (Pancreatic Carcinoma); experiment: as above
Outline: as §1

MPP-89 (Mesothelioma) [35] = experiment: as above
Outline: as §1

[36] = test system: SNU-16 (Gastric Carcinoma); experiment: as above
Outline: as §1

KS-1 (Glioblastoma) [37] = experiment: as above
Outline: as §1

[38] = test system: LS-123 (Colorectal Carcinoma); experiment: as above
Outline: as §1

GAMG (Glioblastoma) [39] = experiment: as above
Outline: as §1

[40] = test system: SW1710 (Bladder Carcinoma); experiment: as above
Outline: as §1

LOXIMVI (Melanoma) [41] = experiment: as above
Outline: as §1

CAL-72 (Osteosarcoma) [42] = experiment: as above
Outline: as §1

[43] = test system: BE-13 (T-Lymphoblastic Leukemia); experiment: as above
Outline: as §1

[44] = test system: SAS (Oral Cavity Carcinoma); experiment: as above
Outline: as §1

[45] = test system: SNU-449 (Hepatocellular Carcinoma); experiment: as above
Outline: as §1

[46] = test system: KYAE-1 (Esophageal Adenocarcinoma); experiment: as above
Outline: as §1

## N#Cc1cnc(Nc2cc(NC[C@H]3CNCCO3)c(C(F)(F)F)cn2)cn1 [SRA737] + CCc1c2c(nc3ccc(O)cc13)-c1cc3c(c(=O)n1C2)COC(=O)[C@]3(O)CC [SN-38] (first compound max 10 µM, 7x7, partner max 0.3 µM)
EW-11 (Ewing's Sarcoma) [1]
  Bliss excess: -0.132
[2]
  Bliss excess: -0.0091
[3]
  Bliss excess: 0.0008
[4]
  Bliss excess: 0.017
[5]
  Bliss excess: -0.0324
[6]
  Bliss excess: -0.0048
[7]
  Bliss excess: 0.0261
[8]
  Bliss excess: -0.002
[9]
  Bliss excess: 0.113
A673 (Ewing's Sarcoma) [10]
  Bliss excess: -0.0511
[11]
  Bliss excess: -0.041
MPP-89 (Mesothelioma) [12]
  Bliss excess: 0.0191
[13]
  Bliss excess: 0.0524
KS-1 (Glioblastoma) [14]
  Bliss excess: -0.0798
[15]
  Bliss excess: -0.0163
GAMG (Glioblastoma) [16]
  Bliss excess: 0.0754
[17]
  Bliss excess: 0.0736
LOXIMVI (Melanoma) [18]
  Bliss excess: -0.0354
CAL-72 (Osteosarcoma) [19]
  Bliss excess: 0.0489
[20]
  Bliss excess: 0.057
[21]
  Bliss excess: -0.0333
[22]
  Bliss excess: 0.0341
[23]
  Bliss excess: 0.0142
EW-11 (Ewing's Sarcoma) [24]
  combination Emax: 0.682
[25]
  combination Emax: 1
[26]
  combination Emax: 0.367
[27]
  combination Emax: 0.452
[28]
  combination Emax: 0.994
[29]
  combination Emax: 0.784
[30]
  combination Emax: 0.847
[31]
  combination Emax: 0.84
[32]
  combination Emax: 0.938
A673 (Ewing's Sarcoma) [33]
  combination Emax: 0.945
[34]
  combination Emax: 0.696
MPP-89 (Mesothelioma) [35]
  combination Emax: 0.73
[36]
  combination Emax: 0.995
KS-1 (Glioblastoma) [37]
  combination Emax: 0.458
[38]
  combination Emax: 0.773
GAMG (Glioblastoma) [39]
  combination Emax: 0.878
[40]
  combination Emax: 0.676
LOXIMVI (Melanoma) [41]
  combination Emax: 0.859
CAL-72 (Osteosarcoma) [42]
  combination Emax: 0.91
[43]
  combination Emax: 0.99
[44]
  combination Emax: 1
[45]
  combination Emax: 0.704
[46]
  combination Emax: 0.313

— the supplement of paper PMC11061612
